Experimental data from patent publication US8574893B2, “Nucleic acid cleavage complex and method for using the same” (National Cheng Kung University, priority 2010, dated 2013).

Tested on: pST3 test vector
Test: DNA cleavage test of the nucleic acid cleavage reagent in vitro
Format: biochemical
Method: First, the pST3 test vector of Test Example 1 is prepared. The abovementioned vector and the nucleic acid cleavage reagent (Cypate) are mixed in a molar ratio of 1:1000. […] Columns 5 and 6 of FIG. 5 show the position of the nucleic acid cleavage reagent (Cypate) in the gel.

## CC1(C)C(/C=C/C=C/C=C/C=C2/N(CCC(=O)O)c3ccc4ccccc4c3C2(C)C)=[N+](CCC(=O)[O-])c2ccc3ccccc3c21 [Cypate, cypate]
vector:Cypate molar ratio 1:1000, irradiation for 5 mins, FIG. 5 column 8
  cleavage of the plasmid to nicked open-circular plasmid (Form II plasmid): partially cleaved
vector:Cypate molar ratio 1:1000, irradiation for 10 mins, FIG. 5 column 10
  cleavage of the plasmid to nicked open-circular plasmid (Form II plasmid): completely cleaved
